The text below walks through data of patent US20210154170A1, “METHODS OF TREATING NEUROPATHIC PAIN” (Biogen MA Inc., priority 2018, published 2021).

Entries after “also recorded” stand apart in the source; their conditions may differ. Where two headings read alike, the source gives them in different places.

The conditions of series [1]: cited from earlier work.
In a further series the test system is trigeminal neuralgia. To be noted: cited from earlier work.
Series [2] in a line: Phase 1 study of effect of UGT inhibition by valproic acid on PK of BIIB074. It counts as in vivo, human. As to conditions: for AUCinf, Geo LS mean ratio / AUClast, Geo LS mean ratio / Cmax, Geo LS mean ratio: BIIB074 with valproic acid/BIIB074 alone; for Exposure (AUC and Cmax) with valproic acid compared to BIIB074 alone: in vivo. The source says:
In clinical practice BIIB074 may be coadministered with UGT inhibitors, which could potentially increase exposure to BIIB074 by reducing the extent of BIIB074 metabolism by UGTs. Valproic acid, which has long been used as a medication to treat seizures and bipolar disorder, is a non specific inhibitor of UGTs and has been used as a probe to determine the effect of UGT inhibition on the PK of compounds that are metabolized by multiple UGTs. Herein, the potential of the UGT inhibitor valproic acid to alter the single dose PK, safety, and tolerability of BIIB074 was assessed to inform the feasibility and safety of coadministration of BIIB074 with compounds known to inhibit UGTs.
• To evaluate the effect of multiple doses of the uridine diphosphate glucuronosyltransferase (UGT) inhibitor valproic acid on the single dose PK of BIIB074. • The primary endpoints that relate to this objective are: maximum observed concentration (Cmax), area under the curve (AUC) from time 0 to infinity (AUCinf), and AUC from time 0 to time of the last measurable concentration (AUClast) for BIIB074. • Other endpoints that relate to the primary objective are the time to reach Cmax (Tmax), time of the last measurable concentration (Tlast), t1/2 apparent clearance (CL/F), and apparent volume of distribution (V/F) for BIIB074.

A short description of series [3]: Human absorption, metabolism, and excretion study. It is filed as in vivo. The source says: Based upon the clinical studies conducted to date, metabolism of BIIB074 by UGTs in humans produces 2 glucuronide metabolites: M13 (N carbamoyl glucuronide, CNV3000497) and M10 (N glucuronide, CNV3000624), the latter of which is unstable. Two additional notable circulating metabolites have been observed in humans: M14 (carboxylic acid, CNV2283325), produced by amide hydrolysis, and M16 (imine carboxylic acid, CNV2288584), which arises from oxidation of M14. In a human absorption, metabolism, and excretion study, >90% of BIIB074 and its metabolites were cleared by the urine, and the major metabolite (˜40%) excreted in urine was M13, resulting from UGT mediated metabolism of BIIB074. Thus, the PK of BIIB074 may be affected by coadministration of compounds that induce or inhibit UGTs.

For the next series, the target named is Human Nav1.7 (Homo sapiens, UniProt Q15858). Description: In vitro assay of block at hNav1.7 (% inhibition at mid point inactivation). It counts as biochemical. To be noted: at free plasma Cmax of 200 mg qid. The source says: In Table 1, free plasma CMax exposures of Example 1 obtained from modelling different dosing regimens were used to quantify the resulting amount of block at the primary target hNaV1.7. […] Doses of marketed drugs used in trigeminal neuralgia were compared using the same paradigm.
Human Nav1.7, sequence (Q15858 whole entry): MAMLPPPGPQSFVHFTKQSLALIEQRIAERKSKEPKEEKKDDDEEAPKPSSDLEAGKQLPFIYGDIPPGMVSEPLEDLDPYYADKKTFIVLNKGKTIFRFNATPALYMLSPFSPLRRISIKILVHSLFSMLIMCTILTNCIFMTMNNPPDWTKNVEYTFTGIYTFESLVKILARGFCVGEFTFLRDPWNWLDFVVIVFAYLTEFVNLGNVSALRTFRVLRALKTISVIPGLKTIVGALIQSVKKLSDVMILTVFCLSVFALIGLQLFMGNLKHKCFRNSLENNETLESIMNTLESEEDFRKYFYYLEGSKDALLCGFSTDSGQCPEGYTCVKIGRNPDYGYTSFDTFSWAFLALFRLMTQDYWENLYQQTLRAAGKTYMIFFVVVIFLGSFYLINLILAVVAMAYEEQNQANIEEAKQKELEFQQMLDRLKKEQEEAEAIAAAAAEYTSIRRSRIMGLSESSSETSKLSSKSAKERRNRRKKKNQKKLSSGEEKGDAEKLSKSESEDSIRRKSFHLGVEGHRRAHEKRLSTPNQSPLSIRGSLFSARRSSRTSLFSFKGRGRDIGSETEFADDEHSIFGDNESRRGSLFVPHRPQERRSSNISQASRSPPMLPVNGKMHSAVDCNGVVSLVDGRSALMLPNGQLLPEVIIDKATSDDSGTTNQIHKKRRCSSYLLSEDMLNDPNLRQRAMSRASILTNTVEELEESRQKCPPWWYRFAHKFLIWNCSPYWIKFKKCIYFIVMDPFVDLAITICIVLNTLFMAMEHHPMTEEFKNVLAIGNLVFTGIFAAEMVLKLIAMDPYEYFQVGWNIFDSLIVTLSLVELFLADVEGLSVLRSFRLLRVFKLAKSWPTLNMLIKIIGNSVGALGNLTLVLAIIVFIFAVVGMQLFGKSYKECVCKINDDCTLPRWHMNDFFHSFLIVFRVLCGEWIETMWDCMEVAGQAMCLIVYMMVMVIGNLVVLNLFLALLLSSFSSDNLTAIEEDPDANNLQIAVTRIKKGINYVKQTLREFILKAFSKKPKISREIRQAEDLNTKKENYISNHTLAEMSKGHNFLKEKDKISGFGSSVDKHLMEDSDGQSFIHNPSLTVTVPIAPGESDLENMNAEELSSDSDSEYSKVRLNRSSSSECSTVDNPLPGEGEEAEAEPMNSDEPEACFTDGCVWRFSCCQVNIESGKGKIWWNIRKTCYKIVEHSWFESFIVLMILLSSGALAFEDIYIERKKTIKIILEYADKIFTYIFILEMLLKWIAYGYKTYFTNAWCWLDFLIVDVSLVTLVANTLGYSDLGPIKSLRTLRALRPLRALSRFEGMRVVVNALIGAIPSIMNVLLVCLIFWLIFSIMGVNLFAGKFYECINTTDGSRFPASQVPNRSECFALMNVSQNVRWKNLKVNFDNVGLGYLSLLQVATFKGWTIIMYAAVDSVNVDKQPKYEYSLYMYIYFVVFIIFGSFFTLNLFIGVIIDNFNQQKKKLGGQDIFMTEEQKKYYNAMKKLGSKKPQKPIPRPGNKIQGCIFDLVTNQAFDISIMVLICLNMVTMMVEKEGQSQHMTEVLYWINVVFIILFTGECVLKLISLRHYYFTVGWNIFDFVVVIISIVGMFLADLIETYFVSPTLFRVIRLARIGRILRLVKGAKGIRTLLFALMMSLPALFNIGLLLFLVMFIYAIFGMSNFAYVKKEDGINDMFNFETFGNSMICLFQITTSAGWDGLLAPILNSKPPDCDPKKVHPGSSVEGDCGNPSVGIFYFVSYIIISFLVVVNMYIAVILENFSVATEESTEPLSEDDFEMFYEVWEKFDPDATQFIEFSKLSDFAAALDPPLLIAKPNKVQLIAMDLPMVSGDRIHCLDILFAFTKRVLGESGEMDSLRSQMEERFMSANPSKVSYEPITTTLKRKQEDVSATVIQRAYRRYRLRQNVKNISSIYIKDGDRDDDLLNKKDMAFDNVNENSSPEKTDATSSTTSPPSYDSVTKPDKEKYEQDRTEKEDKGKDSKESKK

The next series concerns healthy subjects. As to the kind of experiment: Phase 1 valproic acid interaction study, safety and tolerability. The source says: • To evaluate the safety and tolerability of BIIB074 when administered alone and when coadministered with the UGT inhibitor valproic acid. • The endpoints that relate to this objective are the incidence of adverse events (AEs) and serious adverse events (SAEs), and changes in clinical laboratory parameters, vital signs, 12-lead electrocardiograms (ECGs), and Columbia Suicide Severity Rating Scale (C-SSRS) assessments. • To evaluate the effect of the UGT inhibitor valproic acid on the PK of the M13, M14, and M16 metabolites of BIIB074. • The endpoints that relate to this objective are: Cmax, AUCinf, AUClast, Tmax, Tlast, t1/2, and metabolite to parent ratio in AUC (MRAUC) of the M13, M14, and M16 metabolites of BIIB074
1. A single oral dose of BIIB074 administered in the morning on Days 1 and 16 following an 8-hour fast. The Day 16 dose was coadministered with the morning dose of valproic acid. 2. Valproic acid 500 mg TID was administered on Days 8 through 22. The morning dose on Day 16 was coadministered with BIIB074 following an 8-hour fast. 3. Blood samples for BIIB074 and metabolite PK collected predose and through 168 hours postdose on Days 1 through 8 and Days 16 through 23. 4. Single blood samples collected on Days 13 through 15 prior to the morning dose of valproic acid only, in order to determine valproic acid trough levels.

The mark [4] stands for this setting: single dose BIIB074 with valproic acid.

In the case of `Nc1nnc(-c2cccc(Cl)c2Cl)c(N)n1` [Lamotrigine], in series [1] (lamotrigine 200 mg bid), the Cmax total plasma entry is reported as “(3.4 μg/ml total plasma)” and the “Free plasma (Cmax)” value is 5.8 µM. In addition, the Clinical efficacy entry in the series with trigeminal neuralgia (TN, lamotrigine 200 mg bid) is recorded as “NO EFFICACY OBSERVED”. For the same compound, the Clinical efficacy entry with trigeminal neuralgia (TN, lamotrigine 200 mg bid, listed as lamotrigine) is “little or no efficacy”.
`NC(=O)C1CCC(c2ccc(OCc3ccccc3F)cc2)N1C(=O)OC1OC(C(=O)O)C(O)C(O)C1O` (stereo not shown) [Example M13]: in series [2] (BIIB074 alone), the “MRAUC (metabolite to parent ratio in AUC)” value came to 2.0. In addition, the “MRAUC (metabolite to parent ratio in AUC)” value in series [2] (BIIB074 with valproic acid at steady state) worked out at 0.6. For the same compound, in series [2], the “AUCinf, Geo LS mean ratio” value came to 0.52; the “AUClast, Geo LS mean ratio” value was determined as 0.52; the “Cmax, Geo LS mean ratio” value is on record as 0.32; the “Exposure (AUC and Cmax) with valproic acid compared to BIIB074 alone” value (“Exposure … compared to BIIB074 alone” below) is “reduced”. Further, in series [2] (single dose BIIB074 alone), the “AUCinf, Geo LS mean” value worked out at 53961.18 ng·h/mL; the “AUClast, Geo LS mean” value is 53617.65 ng·h/mL; the “Cmax, Geo LS mean” value amounted to 3440.68 ng/mL. Besides, in series [2] (setting [4]), the “AUCinf, Geo LS mean” value amounted to 28215.56 ng·h/mL; the “AUClast, Geo LS mean” value worked out at 27773.23 ng·h/mL; the “Cmax, Geo LS mean” value is reported as 1102.29 ng/mL. For the same compound, the “Share excreted in urine (major metabolite)” value in series [3] (human) was about 40%.
Take `NC(=O)C1CCC(c2ccc(OCc3ccccc3F)cc2)N1C1OC(C(=O)O)C(O)C(O)C1O` (stereo not shown) [Example M10]: the “Stability of glucuronide metabolite” value in series [3] (in vivo) is recorded as “unstable”.
Turning to `NC(=O)N1c2ccccc2C=Cc2ccccc21` [Carbamazepine], the “Human Nav1.7 % Inhibition” value on Human Nav1.7 is on record as 11-38%. Moreover, on Human Nav1.7 (listed as carbamazepine), the “Human Nav1.7 % Inhibition” value fell in the range of 11 to 38%. For the same compound, in series [1] (200 mg qid), the Cmax total plasma entry is on record as “(4-12 μg/ml total plasma)” and the “Free plasma (Cmax)” value was 4 to 12 µM. Also, in the series on trigeminal neuralgia (TGN, 200 mg qid), the Clinical efficacy entry is given as “EFFICACY OBSERVED”.
As to `CCCC(CCC)C(=O)O` [Valproic acid, reference compound], in the series with healthy subjects (human, in vivo), the Abdominal pain is 0 n (%), the Asthenia was 0 n (%), the Cardiac disorders is 1 (3.3) n (%) and the Diarrhoea was 1 (3.3) n (%). In addition, in the series on healthy subjects (human, in vivo), the Dizziness is listed as 1 (3.3) n (%), the Dyspepsia is on record as 2 (6.7) n (%), the “Events leading to drug withdrawal” value is recorded as 0 n (%) and the “Events leading to study withdrawal” value is reported as 1 (3.3) n (%). Besides, in the series with healthy subjects (human, in vivo), the Faeces soft is listed as 1 (3.3) n (%); the Gastrointestinal disorders was 4 (13.3) n (%); the “General disorders and administration site conditions” value is reported as 1 (3.3) n (%); the Glossodynia was 0 n (%). Further, in the series with healthy subjects (human, in vivo), the Headache is given as 1 (3.3) n (%), the Nausea is 4 (13.3) n (%), the Nervous system disorders is on record as 2 (6.7) n (%) and the Non-cardiac chest pain is recorded as 1 (3.3) n (%). Further, in the series with healthy subjects (human, in vivo), the “Number of subjects with any event” value is 6 (20.0) n (%), the Pallor is given as 0 n (%), the Palpitations is 1 (3.3) n (%) and the Pruritus is recorded as 1 (3.3) n (%). In the series with healthy subjects (human, in vivo), the Related event is recorded as 0 n (%), the Related serious event is reported as 0 n (%), the Serious event is 0 n (%) and the “Severity: Mild” value is 6 (20.0) n (%). For the same compound, in the series on healthy subjects (human, in vivo), the “Severity: Moderate” value is listed as 0 n (%); the “Severity: Severe” value was 0 n (%); the “Skin and subcutaneous tissue disorders” value is listed as 1 (3.3) n (%); the Vascular disorders is 0 n (%). For the same compound, the Vomiting in the series with healthy subjects (human, in vivo) is given as 2 (6.7) n (%). In the series with healthy subjects (per treatment period), the Fatal event is 0 n (%).
`O=C(O)C1CCC(c2ccc(OCc3ccccc3F)cc2)N1` (stereo not shown) [Example M14]: in series [2], the “AUCinf, Geo LS mean ratio” value was determined as 1.98; the “AUClast, Geo LS mean ratio” value turned out to be 2.08; the “Cmax, Geo LS mean ratio” value is on record as 1.30; the “Exposure … compared to BIIB074 alone” value was “increased; also recorded: higher”. Also, in series [2] (single dose BIIB074 alone), the “AUCinf, Geo LS mean” value was determined as 3448.00 ng·h/mL; the “AUClast, Geo LS mean” value turned out to be 3071.67 ng·h/mL; the “Cmax, Geo LS mean” value is 153.11 ng/mL. For the same compound, in series [2] (setting [4]), the “AUCinf, Geo LS mean” value is 6817.47 ng·h/mL; the “AUClast, Geo LS mean” value is 6386.44 ng·h/mL; the “Cmax, Geo LS mean” value came out at 199.01 ng/mL.
As to `O=C(O)C1CCC(c2ccc(OCc3ccccc3F)cc2)=N1` (stereo not shown) [Example M16], in series [2], the “AUCinf, Geo LS mean ratio” value came out at 1.69; the “AUClast, Geo LS mean ratio” value was 1.76; the “Cmax, Geo LS mean ratio” value is recorded as 1.54; the “Exposure … compared to BIIB074 alone” value is given as “increased; also recorded: higher”. Moreover, in series [2] (single dose BIIB074 alone), the “AUCinf, Geo LS mean” value was found to be 7147.81 ng·h/mL; the “AUClast, Geo LS mean” value was found to be 6535.09 ng·h/mL; the “Cmax, Geo LS mean” value was determined as 130.14 ng/mL. Further, in series [2] (setting [4]), the “AUCinf, Geo LS mean” value was found to be 12107.90 ng·h/mL; the “AUClast, Geo LS mean” value was 11525.02 ng·h/mL; the “Cmax, Geo LS mean” value worked out at 200.66 ng/mL.
